Measurements taken from patent US20230084927A1, “GLUCOSE UPTAKE INHIBITORS AND USES THEREOF” (METABOMED LTD., priority 2019, published 2023).
Like-named read-outs stand apart in the source and are kept apart here.

What was measured:
[1] = system: SDH-KO-HRAS cells (SDHB-deficient); assay: Cellular / differential toxicity assay (CellTiter-Glo, 3 days); assay type: cell-based, murine; conditions: for EC50: Mus musculus, 72 h
Outline: (§1)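 Isogenic SDHB-deficient (HRAS-transformed SDH-KO) and SDH-WT cells grown in DMEM-F12 with 1 mM glutamine and 3% FBS, plated with compound (10-point dilution from 10 uM to 0.0065 uM or lower) for 3 days at 37 °C, 5% CO2. Viability by CellTiter-Glo luminescence; EC50 calculated.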

SDH-WT cells = assay: as above; assay type: cell-based, murine; conditions: for EC50: Mus musculus, 72 h
Outline: as §1

CC1(C)Cc2nc3sc4c(NCCc5ccc6[nH]cnc6c5)ncnc4c3cc2CO1 [Compound 145]
Ratio BAY-876/COMP 145 ([1]; Murine SDH-KO): 0.8 | EC50 ([1]; Murine SDH-KO, transformed, 72 hours, Example 8, read-out: EC50): 0.0012 µM | EC50 ([1]; SDH-KO cells, 72 hours, Example 7, read-out: EC50 Tox): 0.0018 µM | EC50 ([1]; toxicity, SDH-KO cells, 3 days, CellTiter-Glo, read-out: EC50 (uM) SDH-KO-HTAS-C17): < 1 µM | differential effect between SDH-WT and KO cells (EC50 Tox) ([1]; cell viability, Example 7): around 80 folds | Ratio BAY-876/COMP 145 (SDH-WT cells; Murine SDH-WT): 0.4 | EC50 (SDH-WT cells; Murine SDH-WT, transformed, 72 hours, Example 8, read-out: EC50): 0.34 µM | EC50 (SDH-WT cells; SDH-WT cells, 72 hours, Example 7, read-out: EC50 Tox): 0.139 µM | EC50 (SDH-WT cells; toxicity, SDH-WT cells, 3 days, CellTiter-Glo, read-out: EC50 (uM) SDH-WT): < 1 µM
